Assay [1] addresses 5-HT6R (Homo sapiens, UniProt P50406). Nature of the assay: 5-HT6R radioligand binding assay. To be noted: [3H]LSD radioligand; triplicate; na = not active (<50% inhibition in a primary assay).
The target in assay [2] is 5-HT2AR (Homo sapiens, UniProt P28223). Nature of the assay: 5-HT2AR radioligand binding assay.
The target in assay [3] is 5-HT7AR (Homo sapiens, UniProt P34969). Kind of assay: 5-HT7AR radioligand binding assay.
Assay [4] deals with D5R (Homo sapiens, UniProt P21918). Kind of assay: D5R radioligand binding assay. The note with it: triplicate; na = not active (<50% inhibition in a primary assay).
Setting [5] is: [3H]Ketanserin radioligand, triplicate, na = not active (<50% inhibition in a primary assay).

Where two headings read alike, the source gives them in different places.

Sequence of D5R (P21918 whole entry): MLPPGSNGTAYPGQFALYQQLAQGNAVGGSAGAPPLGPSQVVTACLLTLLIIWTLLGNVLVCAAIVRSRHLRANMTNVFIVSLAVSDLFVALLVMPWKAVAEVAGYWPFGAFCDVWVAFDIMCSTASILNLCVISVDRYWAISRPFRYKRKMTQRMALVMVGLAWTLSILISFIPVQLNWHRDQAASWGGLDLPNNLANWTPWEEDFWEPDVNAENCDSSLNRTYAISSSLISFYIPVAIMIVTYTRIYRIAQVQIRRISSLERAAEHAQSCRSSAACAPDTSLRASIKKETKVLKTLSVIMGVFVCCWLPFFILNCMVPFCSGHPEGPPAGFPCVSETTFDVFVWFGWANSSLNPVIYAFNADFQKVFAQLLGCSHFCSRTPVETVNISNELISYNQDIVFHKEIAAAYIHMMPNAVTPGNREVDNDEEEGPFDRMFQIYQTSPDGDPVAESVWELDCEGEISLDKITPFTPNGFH
Sequence of 5-HT2AR (P28223 whole entry): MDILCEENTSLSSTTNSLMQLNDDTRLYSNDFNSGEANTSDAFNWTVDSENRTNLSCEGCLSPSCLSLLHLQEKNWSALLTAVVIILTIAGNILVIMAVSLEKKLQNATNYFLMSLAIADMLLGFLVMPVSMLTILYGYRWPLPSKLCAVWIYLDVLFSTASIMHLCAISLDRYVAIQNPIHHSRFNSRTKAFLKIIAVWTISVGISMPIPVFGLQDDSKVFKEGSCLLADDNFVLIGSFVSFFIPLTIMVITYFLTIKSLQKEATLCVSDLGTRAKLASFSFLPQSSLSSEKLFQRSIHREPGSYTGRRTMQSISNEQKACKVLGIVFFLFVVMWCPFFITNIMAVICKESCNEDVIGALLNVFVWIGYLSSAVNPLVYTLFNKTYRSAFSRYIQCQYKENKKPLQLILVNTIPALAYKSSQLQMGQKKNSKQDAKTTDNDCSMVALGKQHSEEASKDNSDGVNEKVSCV
Sequence of 5-HT6R (P50406 whole entry): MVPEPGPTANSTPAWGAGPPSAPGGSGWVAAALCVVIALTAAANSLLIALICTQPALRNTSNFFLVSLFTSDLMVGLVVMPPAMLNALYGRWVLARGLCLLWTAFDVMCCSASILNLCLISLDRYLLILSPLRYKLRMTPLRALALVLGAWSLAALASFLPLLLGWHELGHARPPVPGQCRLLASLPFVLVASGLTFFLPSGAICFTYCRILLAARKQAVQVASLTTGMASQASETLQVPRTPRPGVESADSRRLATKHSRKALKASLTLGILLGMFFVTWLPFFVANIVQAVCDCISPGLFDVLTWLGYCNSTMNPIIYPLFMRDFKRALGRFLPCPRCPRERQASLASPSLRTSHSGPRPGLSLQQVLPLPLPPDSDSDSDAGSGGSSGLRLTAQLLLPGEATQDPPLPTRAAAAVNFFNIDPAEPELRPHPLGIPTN
Sequence of 5-HT7AR (P34969 1-445 isoform P34969-2): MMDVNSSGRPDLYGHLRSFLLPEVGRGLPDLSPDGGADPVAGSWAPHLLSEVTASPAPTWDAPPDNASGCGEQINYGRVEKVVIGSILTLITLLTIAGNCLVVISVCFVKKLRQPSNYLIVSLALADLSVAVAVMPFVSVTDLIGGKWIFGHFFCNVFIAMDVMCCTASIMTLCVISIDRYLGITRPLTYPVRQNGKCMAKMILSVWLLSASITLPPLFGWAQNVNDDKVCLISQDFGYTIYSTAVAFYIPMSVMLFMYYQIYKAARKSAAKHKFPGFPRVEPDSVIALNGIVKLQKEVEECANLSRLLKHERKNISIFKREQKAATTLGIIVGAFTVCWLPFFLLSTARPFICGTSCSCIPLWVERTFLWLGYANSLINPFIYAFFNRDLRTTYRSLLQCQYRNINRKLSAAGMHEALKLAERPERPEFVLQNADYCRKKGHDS

For the compound `CCCN1CCc2cccc3c2C1Cc1ccc(NC(C)=O)cc1-3` (centres unmarked) [Compound 25, N-(6-propyl-5,6,6a,7-tetrahydro-4H-dibenzo[de,g]quinolin-10-yl)acetamide], in assay [1], the “Ki 5-HT6R” value is “no affinity”. In addition, the “Ki 5-HT2AR” value in assay [2] (setting [5]) was “no affinity”. Besides, in assay [3] ([3H]LSD radioligand, triplicate, na = not active (<50% inhibition in a primary assay)), the “Ki 5-HT7AR” value is “no affinity”.

As for `CCCN1CCc2cccc3c2C1Cc1cc2sc(N)nc2cc1-3` (centres unmarked) [Compound 34b, 6-propyl-5,6,6a,7-tetrahydro-4H-benzo[de]thiazolo[5’,4’:4,5]benzo[1,2-g]quinolin-10-amine], in assay [4], the “Ki D5R” value is “lack of affinity”.

Regarding `CN1CCc2cccc3c2C1Cc1ccc(NC(N)=O)cc1-3` (centres unmarked) [Compound 29, 1-(6-methyl-5,6,6a,7-tetrahydro-4H-dibenzo[de,g]quinolin-10-yl)urea], the “Ki D5R” value in assay [4] was “lacked affinity”.

Turning to `CN1CCc2cccc3c2C1Cc1ccc2nc(N)sc2c1-3` (centres unmarked) [Compound 33a, 7-methyl-6a,7,8,9-tetrahydro-6H-benzo[de]thiazolo[4’,5’:5,6]benzo[1,2-g]quinolin-2-amine], in assay [4], the “Ki D5R” value was “no affinity”. Further, the “selectivity for 5-HT7AR versus 5-HT1AR” value in assay [3] (ratio of binding affinities) is “approximately 19 fold”.

Turning to `COc1cc2c3c(c1OC)-c1cc(NS(C)(=O)=O)ccc1CC3N(C)CC2` (centres unmarked) [Compound 15, N-(1,2-dimethoxy-6-methyl-5,6,6a,7-tetrahydro-4H-dibenzo[de,g]quinolin-10-yl)methanesulfonamide], the “Ki 5-HT2AR” value in assay [2] (setting [5]) was “lack of affinity”.

Take `CN(C)c1ccc2c(c1)-c1cccc3c1C(C2)N(C)CC3` (centres unmarked) [Compound 31, N,N,6-trimethyl-5,6,6a,7-tetrahydro-4H-dibenzo[de,g]quinolin-10-amine]: the “Ki 5-HT6R” value in assay [1] is recorded as “fairly weak affinity”. Further, in assay [2], the “Ki 5-HT2AR” value is “fairly weak affinity”.

For the compound `COc1cc2c3c(c1OC)-c1cc(NC(N)=O)ccc1CC3N(C)CC2` (centres unmarked) [Compound 19, 1-(1,2-dimethoxy-6-methyl-5,6,6a,7-tetrahydro-4H-dibenzo[de,g]quinolin-10-yl)urea], the “Ki 5-HT2AR” value in assay [2] (setting [5]) was “lack of affinity”.

Values taken from paper PMC7340851 (Bioorganic & medicinal chemistry, 2020).
